According to patent US20040122065A1 (priority 2002, published 2004):

Assay: Pharmacokinetic crossover trial: 2 mg sublingual tablet vs 4 mg commercial oral tizanidine (Zanaflex), plasma tizanidine by HPLC
Assay type: in vivo
Conditions: human
Procedure: Two groups were randomized and there was a one week washout period between administrations. The volunteers were in the fasted state when the drugs were administered. The sublingual tablets were placed under the tongue for 5 minutes and tablet remnants, if any, were swallowed. The oral formulation was administered with a glass of water. Blood samples were taken at 0, 0.5, 1.0, 1.5, 2.0, 2.5, 3.0, 4.0, 5.0, 6.0 and 7.0 hours after administration. […] The samples were blinded from the analysts.

Clc1ccc2nsnc2c1NC1=NCCN1 [Tizanidine, 5-Chloro-N-(4,5-dihydro-1H-imidazol-2-yl)-2,1,3-benzothiadiazol-4-amine]
concentration at 0 h (other: sublingual, 2 mg, Plasma Tizanidine Levels, sublingual delivery of 2 mg tizanidine (sublingual tablet), fasted, 0 h after dosing, one column per test subject): < 98.4 ng/g
concentration at 0 h (po, 4 mg): < 98.4 ng/g
